Source: patent US20170051149A1, “AZOARYLS AS REVERSIBLY MODULATABLE TUBULIN INHIBITORS” (ECOLE NORMALE SUPERIEURE DE LYON, priority 2014, published 2017)

How the values were obtained:
HEK-293T cells = assay: MTT assay, light-dependent cell proliferation; assay type: cell-based; details: 72 h
Jurkat cells [1] = assay: nuclear fragmentation (subG1, Nicoletti), induction of apoptosis; assay type: cell-based; details: 48 h
Protocol: (§1) Different cell types, including MDA-MB-231, Jurkat, HeLa and HepG2 cells, were treated with indicated concentrations of compound I.1 and exposed to a 390 nm toxic regime, a rescue regime with both 390 nm and 515 nm light, or kept in the dark. Following the treatment, cells were stained with PI and the percentage of cells containing a hypodiploid amount of DNA (subG1 phase of cell cycle), was determined. Briefly, prior to analysis, cells were harvested on ice and incubated in a hypotonic buffer [0.1% sodium citrate, 0.1% Triton X-100 and 50 μg/mL propidium iodide (PI)] for 30 min at 4° C. Following the PI staining cells were analysed by flow cytometry using FACSCalibur flow cytometer (Becton Dickinson, Heidelberg, Germany) and Cell Quest Pro Software (Becton Dickinson).

HeLa cells [2] = assay: as above; assay type: cell-based; details: 15 nM, 30 h
Protocol: as §1

HeLa cells [3] = assay: MTT assay; assay type: cell-based; details: 50 nM, 48 h
From the text: The cytotoxic properties of I.1 were subsequently confirmed with another method, using the quantification of mitochondrial dehydrogenase activity of cells as determined by the level of 3-(4.5-dimethylthiazol-2-yl)-2.5-diphenyl tetrazolium bromide (MTT) reduction to its purple formazan, according to standard protocol^[30]. […] Cells were kept in the dark, or exposed to a pulsed toxic regime of 390 nm only, or exposed to a strong rescue protocol with pulses of 390 nm then 505 nm light. Pulses of light were applied every 30 s; 390 nm light pulses lasted 150 ms every 30 s, while the 505 nm light pulses were applied for 500 ms; in the strong rescue regime, the 505 nm pulse was synchronised so that it began immediately after the 390 nm pulse ended.
Cellular viability was measured 48 h later, namely, cells were incubated with MTT for three hours and after dissolution of the formazan crystals with DMSO, absorbance at 550 nm was measured using a FLUOstar Omega microplate reader. Results are shown in Table 5 below and are expressed as a fold growth relative to the control growth of the cells treated only with a co-solvent (0.5% MeCN) and represent mean and standard deviation of quadruplicates of the optical density values, which are proportional to the cell number.

Jurkat cells [4] = assay: membrane permeability, PI uptake in nonpermeabilized cells; assay type: cell-based; details: 15 nM, 48 h
Protocol: (§2) Membrane integrity was assessed as a marker of cellular viability, via examining the uptake of propidium iodide (PI) in nonpermeabilized cells according to a standard protocol. Namely, cells were harvested and incubated with 5 μg/mL PI in PBS containing 2% FCS (foetal calf serum), and immediately analysed by flow cytometry using a FACSCalibur flow cytometer.

MDA-MB-231 = assay: as above; assay type: cell-based; details: 15 nM, 70 h
Protocol: as §2

HeLa [5] = assay: as above; assay type: cell-based; details: 15 nM, 70 h
Protocol: as §2

HEK-293 = assay: cell cycle analysis by PI flow cytometry; assay type: cell-based; details: 15 nM, 30 h
Protocol: (§3) The effect of compound I.1 on cell cycle progression was assessed by flow cytometry. Briefly, following the application of compound I.1 and exposure to the indicated light regime, cells were harvested on ice and incubated in a hypotonic buffer [0.1% sodium citrate, 0.1% Triton X-100 and 50 μg/mL propidium iodide (PI)] for 30 min at 4° C. Following the PI staining cells were analysed by flow cytometry using FACSCalibur flow cytometer (Becton Dickinson, Heidelberg, Germany) and Cell Quest Pro Software (Becton Dickinson). Subsequently the cell cycle analysis was performed using the FlowJo software (Tree Star Inc., Ashland, Oreg., USA).

MDA-MB-231 cells = assay: cell cycle analysis by PI flow cytometry; assay type: cell-based; details: 15 nM, 30 h
Protocol: as §3

HeLa [6] = assay: cell cycle analysis by PI flow cytometry; assay type: cell-based; details: 15 nM, 30 h
Protocol: as §3

tubulin = details: trans isomer; read-out: in vitro IC50, tubulin polymerisation; cited from earlier work

Compound: COc1ccc(/C=C\c2cc(OC)c(OC)c(OC)c2)cc1OP(=O)(O)O [CA4P, fosbretabulin, reference compound]
- fold growth relative to cosolvent control (MTT) (HEK-293T cells; 5 nM, 390 nm, 0.35 s every 2 min): 1.29
- fold growth relative to cosolvent control (MTT) (HEK-293T cells; 5 nM, 390 nm, 0.35s then 490 nm, 3 s (rescue) every 2 min): 1.28
- fold growth relative to cosolvent control (MTT) (HEK-293T cells; 5 nM, 410 nm, 0.35 s every 2 min): 1.19
- fold growth relative to cosolvent control (MTT) (HEK-293T cells; 5 nM, 410 nm, 0.35 s then 505 nm, 3 s (rescue) every 2 min): 1.20
- fold growth relative to cosolvent control (MTT) (HEK-293T cells; 5 nM, 475 nm, 3 s every 2 min): 1.12
- fold growth relative to cosolvent control (MTT) (HEK-293T cells; 5 nM, 490 nm, 3 s every 2 min): 1.43
- fold growth relative to cosolvent control (MTT) (HEK-293T cells; 5 nM, 505 nm, 3 s every 2 min): 1.07
- fold growth relative to cosolvent control (MTT) (HEK-293T cells; 5 nM, 525 nm, 3 s every 2 min): 0.86
- fold growth relative to cosolvent control (MTT) (HEK-293T cells; 5 nM, Dark): 0.82
- fold growth relative to cosolvent control (MTT) (HEK-293T cells; 15 nM, 390 nm, 0.35 s every 2 min): 0.88
- fold growth relative to cosolvent control (MTT) (HEK-293T cells; 15 nM, 390 nm, 0.35s then 490 nm, 3 s (rescue) every 2 min): 0.82
- fold growth relative to cosolvent control (MTT) (HEK-293T cells; 15 nM, 410 nm, 0.35 s every 2 min): 0.80
- fold growth relative to cosolvent control (MTT) (HEK-293T cells; 15 nM, 410 nm, 0.35 s then 505 nm, 3 s (rescue) every 2 min): 0.81
- fold growth relative to cosolvent control (MTT) (HEK-293T cells; 15 nM, 475 nm, 3 s every 2 min): 0.70
- fold growth relative to cosolvent control (MTT) (HEK-293T cells; 15 nM, 490 nm, 3 s every 2 min): 0.97
- fold growth relative to cosolvent control (MTT) (HEK-293T cells; 15 nM, 505 nm, 3 s every 2 min): 0.75
- fold growth relative to cosolvent control (MTT) (HEK-293T cells; 15 nM, 525 nm, 3 s every 2 min): 0.81
- fold growth relative to cosolvent control (MTT) (HEK-293T cells; 15 nM, Dark): 0.79
- mean % subG1 phase (Jurkat cells [1]; 5 nM, 390 nm (350 ms pulses every 5 min)): 40.4%
- mean % subG1 phase (Jurkat cells [1]; 5 nM, dark): 37.5%
- mean % subG1 phase (Jurkat cells [1]; 15 nM, 390 nm (350 ms pulses every 5 min)): 91.5%
- mean % subG1 phase (Jurkat cells [1]; 15 nM, dark): 89.7%
- mean % subG1 phase (HeLa cells [2]; 390 nm light (1 s pulses every 15 min)): 12.3%
- mean % subG1 phase (HeLa cells [2]; dark): 11.5%
- mean fold growth (HeLa cells [3]; 390 nm (150 ms every 30 s)): 0.38 fold
- mean fold growth (HeLa cells [3]; Dark): 0.29 fold
- mean % cells PI+ (Jurkat cells [4]; 390 nm (350 ms every 5 min)): 5.7%
- mean % cells PI+ (Jurkat cells [4]; dark): 8.0%
- mean % cells PI+ (MDA-MB-231; 390 nm (1 s every 15 min)): 43.2%
- mean % cells PI+ (MDA-MB-231; dark): 45.1%
- mean % cells PI+ (HeLa [5]; 390 nm (1 s every 15 min)): 63.9%
- mean % cells PI+ (HeLa [5]; dark): 62.5%
- mean % G2/M phase (HEK-293; 390 nm (1 s every 15 min)): 70.1%
- mean % G2/M phase (HEK-293; dark): 72.0%
- mean % G2/M phase (MDA-MB-231 cells; 390 nm (1 s every 15 min)): 50.9%
- mean % G2/M phase (MDA-MB-231 cells; dark): 51.3%
- mean % G2/M phase (HeLa [6]; 390 nm (1 s every 15 min)): 69.5%
- mean % G2/M phase (HeLa [6]; dark): 69.0%

Compound: CCCCCCCOc1ccc(/N=N/c2ccc(CNN[C@H](C=O)CCCCN)cc2)cc1 [P1]
- IC50 (tubulin): ~100 µM
